One data set concerns Liver microsome. The data set can be described thus: Drug metabolism in human liver microsomes assessed as formation of 3-(4-((6-methoxy-1-methyl-1H-benzo[d]imidazol-2-yl)methoxy)phenyl)-2-(methylsulfinyl)propanamide at 20 uM after 2 hrs by radio-HPLC/LC-MS/MS analysis in presence of NADPH-generating system/SAM. Type of data set: ADME. (In general: Liver microsomes are a subcellular fraction often used to study metabolism.)

Data set [1] is described as follows: Drug metabolism in cynomolgus monkey liver microsomes assessed as formation of 3-(4-((6-methoxy-1-methyl-1H-benzo[d]imidazol-2-yl)methoxy)phenyl)-2-(methylsulfonyl)propanamide at 20 uM after 2 hrs by radio-HPLC/LC-MS/MS analysis in presence of NADPH-generating system/SAM. The data set is classed as ADME, Macaca fascicularis.
The target of data set [2] is T1, UDP-glucuronosyltransferase 2B7 (Homo sapiens, UniProt P16662).
T1 sequence (P16662 whole entry): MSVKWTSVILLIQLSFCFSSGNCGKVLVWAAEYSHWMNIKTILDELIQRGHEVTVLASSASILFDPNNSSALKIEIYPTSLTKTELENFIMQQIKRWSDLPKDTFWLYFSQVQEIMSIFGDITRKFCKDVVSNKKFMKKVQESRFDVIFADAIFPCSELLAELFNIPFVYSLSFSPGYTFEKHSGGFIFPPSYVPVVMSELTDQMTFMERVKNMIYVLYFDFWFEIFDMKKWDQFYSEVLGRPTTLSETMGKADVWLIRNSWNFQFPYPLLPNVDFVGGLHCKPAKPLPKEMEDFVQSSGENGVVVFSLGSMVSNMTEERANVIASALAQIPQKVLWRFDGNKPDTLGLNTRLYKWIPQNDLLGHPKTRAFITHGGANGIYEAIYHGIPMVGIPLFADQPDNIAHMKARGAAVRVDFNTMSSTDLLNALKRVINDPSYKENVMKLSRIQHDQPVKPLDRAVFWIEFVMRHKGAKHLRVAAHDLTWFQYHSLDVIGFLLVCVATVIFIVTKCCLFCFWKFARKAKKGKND
The data set can be described thus: Activity of human UGT2B7 expressed in microsomes isolated from baculovirus infected insect cell assessed as enzyme-mediated 2-((4-((2,4-dioxothiazolidin-5-yl)methyl)phenoxy)methyl)-1-methyl-1H-benzo[d]imidazol-6-yl hydrogen sulfate formation at 20 uM after 4 hrs by radio-HPLC/LC-MS/MS analysis. Type of data set: ADME.

The target of a further data set is Cytochrome P450 2C9 (Homo sapiens, UniProt P11712). Description: Activity of human CYP2C9 expressed in microsomes isolated from baculovirus infected insect cell assessed as enzyme-mediated (2S,3S,4S,5R,6R)-3,4,5-trihydroxy-6-(5-(4-((6-methoxy-1-methyl-1H-benzo[d]imidazol-2-yl)methoxy)benzyl)-2,4-dioxothiazolidin-3-yl)tetrahydro-2H-pyran-2-carboxylic acid formation at 20 uM after 2 hrs by radio-HPLC/LC-MS/MS analysis in presence of UDPGA and UDPGA/SAM. The data set is classed as ADME.

Data set [3] concerns the target T2, UDP-glucuronosyltransferase 2B15 (Homo sapiens, UniProt P54855).
T2 sequence (P54855 whole entry): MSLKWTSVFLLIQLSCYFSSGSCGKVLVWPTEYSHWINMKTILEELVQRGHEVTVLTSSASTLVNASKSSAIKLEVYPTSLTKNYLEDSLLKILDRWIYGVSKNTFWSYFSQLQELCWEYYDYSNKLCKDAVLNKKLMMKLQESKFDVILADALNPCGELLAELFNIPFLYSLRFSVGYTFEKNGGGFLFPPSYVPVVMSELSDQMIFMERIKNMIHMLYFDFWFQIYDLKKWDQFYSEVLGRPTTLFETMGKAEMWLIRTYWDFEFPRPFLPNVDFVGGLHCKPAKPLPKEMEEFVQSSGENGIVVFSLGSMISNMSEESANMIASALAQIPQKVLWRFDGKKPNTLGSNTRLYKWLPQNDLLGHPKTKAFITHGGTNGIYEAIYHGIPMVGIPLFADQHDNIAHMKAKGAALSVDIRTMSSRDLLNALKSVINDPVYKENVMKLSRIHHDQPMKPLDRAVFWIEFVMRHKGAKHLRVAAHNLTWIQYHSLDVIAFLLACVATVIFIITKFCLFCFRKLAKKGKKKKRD
The data set can be described thus: Activity of human UGT2B15 expressed in microsomes isolated from baculovirus infected insect cell assessed as enzyme-mediated (2S,3S,4S,5R,6R)-3,4,5-trihydroxy-6-(5-(4-((6-methoxy-1-methyl-1H-benzo[d]imidazol-2-yl)methoxy)benzyl)-2,4-dioxothiazolidin-3-yl)tetrahydro-2H-pyran-2-carboxylic acid formation at 20 uM after 4 hrs by radio-HPLC/LC-MS/MS analysis in presence of UDPGA. The data set is classed as ADME.

Data set [4] can be described thus: Drug metabolism in human hepatocytes assessed as formation of 2-hydroxy-3-(4-((6-methoxy-1-methyl-1H-benzo[d]imidazol-2-yl)methoxy)phenyl)propanamide at 30 uM after 3 hrs by radio-HPLC/LC-MS/MS analysis in presence of NADPH-generating system and NADPH-generating system/SAM. Type of data set: ADME, cell-based, Hepatocyte.
Data set [5] can be described thus: Drug metabolism in cynomolgus monkey liver microsomes assessed as formation of 2-hydroxy-3-(4-((6-methoxy-1-methyl-1H-benzo[d]imidazol-2-yl)methoxy)phenyl)propanamide at 20 uM after 2 hrs by radio-HPLC/LC-MS/MS analysis in presence of NADPH-generating system and NADPH-generating system/SAM. Type of data set: ADME, Macaca fascicularis.
The target of data set [6] is T3, UDP-glucuronosyltransferase 2B17 (Homo sapiens, UniProt O75795).
T3 sequence (O75795 whole entry): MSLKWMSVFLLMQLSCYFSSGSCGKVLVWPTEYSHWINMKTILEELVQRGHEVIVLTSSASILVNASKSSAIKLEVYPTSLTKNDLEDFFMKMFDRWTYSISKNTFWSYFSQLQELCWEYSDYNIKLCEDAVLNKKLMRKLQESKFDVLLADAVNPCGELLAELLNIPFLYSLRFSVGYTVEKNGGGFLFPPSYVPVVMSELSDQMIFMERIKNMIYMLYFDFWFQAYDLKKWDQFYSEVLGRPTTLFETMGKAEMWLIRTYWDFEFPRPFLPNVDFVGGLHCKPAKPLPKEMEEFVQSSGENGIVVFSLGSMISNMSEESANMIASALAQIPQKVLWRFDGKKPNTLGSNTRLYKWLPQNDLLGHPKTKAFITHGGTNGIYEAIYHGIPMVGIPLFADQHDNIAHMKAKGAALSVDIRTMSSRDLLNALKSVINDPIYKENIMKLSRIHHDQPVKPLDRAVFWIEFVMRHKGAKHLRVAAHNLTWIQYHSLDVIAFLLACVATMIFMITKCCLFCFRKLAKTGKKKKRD
Description: Activity of human UGT2B17 expressed in microsomes isolated from baculovirus infected insect cell assessed as enzyme-mediated (2S,3S,4S,5R,6R)-3,4,5-trihydroxy-6-(5-(4-((6-methoxy-1-methyl-1H-benzo[d]imidazol-2-yl)methoxy)benzyl)-2,4-dioxothiazolidin-3-yl)tetrahydro-2H-pyran-2-carboxylic acid formation at 20 uM after 4 hrs by radio-HPLC/LC-MS/MS analysis in presence of UDPGA. The data set is classed as ADME.

Among the data in ChEMBL document CHEMBL3526048, “In vitro metabolism of rivoglitazone, a novel peroxisome proliferator-activated receptor γ agonist, in rat, monkey, and human liver microsomes and freshly isolated hepatocytes” (Drug Metab Dispos, 2011) are Drug metabolism values, retold here.

The structures appear in SMILES notation.

Chain of Cytochrome P450 2C9 (P11712 whole entry): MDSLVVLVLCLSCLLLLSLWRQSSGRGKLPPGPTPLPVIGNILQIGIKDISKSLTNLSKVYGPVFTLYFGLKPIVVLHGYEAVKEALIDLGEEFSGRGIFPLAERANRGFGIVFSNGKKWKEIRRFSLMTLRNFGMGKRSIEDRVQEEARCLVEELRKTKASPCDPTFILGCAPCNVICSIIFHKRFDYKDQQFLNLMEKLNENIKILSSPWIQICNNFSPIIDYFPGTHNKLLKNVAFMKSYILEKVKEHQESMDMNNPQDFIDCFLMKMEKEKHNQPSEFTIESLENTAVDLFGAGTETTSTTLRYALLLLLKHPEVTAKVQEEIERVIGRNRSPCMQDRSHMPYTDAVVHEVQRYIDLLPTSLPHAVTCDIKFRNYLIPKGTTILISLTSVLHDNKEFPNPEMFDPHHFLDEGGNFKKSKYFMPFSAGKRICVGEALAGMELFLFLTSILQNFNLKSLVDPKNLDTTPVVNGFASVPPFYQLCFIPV

Take `COc1ccc2nc(COc3ccc(C[14CH]4SC(=O)NC4=O)cc3)n(C)c2c1.Cl` (racemic): the Drug metabolism entry is reported as “metabolite_detected” with Liver microsome; “metabolite_detected” in data set [1]; “metabolite_not_detected” in data set [2]; “metabolite_not_detected” at Cytochrome P450 2C9; “metabolite_not_detected” in data set [3]; “metabolite_not_detected” in data set [4]. Moreover, the Drug metabolism entry in data set [5] was “metabolite_detected”; in data set [6], “metabolite_not_detected”.
